In brackets after ≈: the same amount, converted by molar mass.
What was measured:
Assay type in all cases: cell-based
[1] = tested on: Bacillus subtilis ATCC 6633; assay: MIC, two-fold dilution method, Bacillus subtilis ATCC 6633; details: 10^6 CFU per ml, 37° C., 18 to 20 hours; for MIC: ATCC6633, Muller Hinton Broth, read-out: Antibacterial Activity (MIC); for Antibacterial Activity (MIC): Muller Hinton Broth
Method in brief: (§1)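 MIC by two-fold broth dilution (Mueller Hinton), 10^6 CFU/ml, 37° C. overnight (18–20 h).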

[2] = tested on: Staphylococcus aureus ATCC 65389; assay: MIC, two-fold dilution method, Staphylococcus aureus ATCC 65389; details: 10^6 CFU per ml, 37° C., 18 to 20 hours; for MIC: ATCC65389, Muller Hinton Broth, read-out: Antibacterial Activity (MIC); for Antibacterial Activity (MIC): Muller Hinton Broth
Method in brief: as §1

[3] = tested on: Staphylococcus epidermidis ATCC 12228; assay: MIC, two-fold dilution method, Staphylococcus epidermidis ATCC 12228; details: 10^6 CFU per ml, 37° C., 18 to 20 hours; for MIC: ATCC12228, Muller Hinton Broth, read-out: Antibacterial Activity (MIC); for Antibacterial Activity (MIC): Muller Hinton Broth
Method in brief: as §1

[4] = tested on: Streptococcus faecalis ATCC 10541; assay: MIC, two-fold dilution method, Streptococcus faecalis ATCC 10541; details: 10^6 CFU per ml, 37° C., 18 to 20 hours; for MIC: Enterococcus faecalis, ATCC10541, Muller Hinton Broth, read-out: Antibacterial Activity (MIC); for Antibacterial Activity (MIC): Muller Hinton Broth
Method in brief: as §1

[5] = tested on: Pseudomonas aeurginosa NCTC 10490; assay: MIC, two-fold dilution method, Pseudomonas aeurginosa NCTC 10490; details: 10^6 CFU per ml, 37° C., 18 to 20 hours; for MIC: NCTC10490, Muller Hinton Broth, read-out: Antibacterial Activity (MIC); for Antibacterial Activity (MIC): Muller Hinton Broth
Method in brief: as §1

[6] = tested on: Esherichia coli ATCC 25922; assay: MIC, two-fold dilution method, Esherichia coli ATCC 25922; details: Muller Hinton Broth, 10^6 CFU per ml, 37° C., 18 to 20 hours; for MIC: read-out: Antibacterial Activity (MIC)
Method in brief: as §1

[7] = tested on: Klebsiella pneumoniae ATCC 10031; assay: MIC, two-fold dilution method, Klebsiella pneumoniae ATCC 10031; details: 10^6 CFU per ml, 37° C., 18 to 20 hours; for MIC: ATCC10031, Muller Hinton Broth, read-out: Antibacterial Activity (MIC); for Antibacterial Activity (MIC): Muller Hinton Broth
Method in brief: as §1

Row | Compound | MIC [1] [µg/mL] | MIC [2] [µg/mL] | MIC [3] [µg/mL] | MIC [4] [µg/mL] | MIC [5] [µg/mL] | MIC [6] [µg/mL] | MIC [7] [µg/mL] | Antibacterial Activity (MIC) [1] [µg/mL] | Antibacterial Activity (MIC) [2] [µg/mL] | Antibacterial Activity (MIC) [3] [µg/mL] | Antibacterial Activity (MIC) [4] [µg/mL] | Antibacterial Activity (MIC) [5] [µg/mL] | Antibacterial Activity (MIC) [6] [µg/mL] | Antibacterial Activity (MIC) [7] [µg/mL]
1 | C=CCO/N=C(\C(=O)NC1C(=O)N2C(C(=O)[O-])=C(CSc3cc[n+](CC)c4cc(N5CCNCC5)c(F)cc34)CS[C@H]12)c1csc(N)n1 (stereo partly drawn) [Compound I-29, 7-[(Z)-2-(2-aminothiazol-4-yl)-2-(allyloxyimino)acetamido]-3-(1-ethyl-6-fluoro-7-piperazinylquinolinium-4-yl)thiomethyl-3-cephem-4-carboxylate] | 0.39 (≈ 0.547 µM) | 0.78 (≈ 1.09 µM) | 0.78 (≈ 1.09 µM) | 0.39 (≈ 0.547 µM) | 3.13 (≈ 4.39 µM) | 1.56 (≈ 2.19 µM) | 0.39 (≈ 0.547 µM) |  |  |  |  |  |  | 
2 | C=CCO/N=C(\C(=O)NC1C(=O)N2C(C(=O)[O-])=C(CSc3cc[n+](C)c4cc(N5CCNCC5C)c(F)cc34)CS[C@H]12)c1csc(N)n1 (stereo partly drawn) [Compound I-24, 7-[(Z)-2-(2-aminothiazol-4-yl)-2-(allyloxyimino)acetamido]-3-[1-methyl-6-fluoro-7-(2-methylpiperazinyl)quinolinium-4-yl]thiomethyl-3-cephem-4-carboxylate] |  |  |  |  |  |  |  | 0.2 | 0.1 | 0.1 | 0.1 | 0.78 | 1.56 | 0.2
3 | C#CCO/N=C(\C(=O)NC1C(=O)N2C(C(=O)[O-])=C(CSc3cc[n+](CC)c4cc(N5CCN(C)CC5)c(F)cc34)CSC12)c1csc(N)n1 (stereo not drawn) [Compound I-46, 7-[(Z)-2-(2-aminothiazol-4-yl)-2-(propargyloxyimino)acetamido]-3-[1-ethyl-6-fluoro-7-(N-methylpiperazinyl)quinolinium-4-yl]thiomethyl-3-cephem-4-carboxylate] | 0.78 (≈ 1.08 µM) | 0.78 (≈ 1.08 µM) | 0.39 (≈ 0.538 µM) | 0.2 (≈ 0.276 µM) | 6.25 (≈ 8.62 µM) | 12.5 (≈ 17.2 µM) | 6.25 (≈ 8.62 µM) |  |  |  |  |  |  | 
4 | CO/N=C(\C(=O)NC1C(=O)N2C(C(=O)[O-])=C(CSc3cc[n+](C)c4cc(N5CCNCC5C)c(F)cc34)CSC12)c1csc(N)n1 (stereo not drawn) [Compound I-4, 7-[(Z)-2-(2-aminothiazol-4-yl)-2-(methoxyimino)acetamido]-3-(1-methyl-6-fluoro-7-(2-methyl)piperazinylquinolinium-4-yl]thiomethyl-3-cephem-4-carboxylate] |  |  |  |  |  |  |  | 0.1 | 0.1 | 0.2 | 0.05 | 0.78 | 0.78 | 0.1
5 | CO/N=C(\C(=O)NC1C(=O)N2C(C(=O)[O-])=C(CSc3cc[n+](C4CC4)c4cc(-n5cnc(C)c5)c(F)cc34)CSC12)c1csc(N)n1 (stereo not drawn) [Compound I-20, 7-[(Z)-2-(2-aminothiazol-4-yl)-2-(methoxyimino)acetamido]-3-[1-cyclopropyl-6-fluoro-7-(4-methylimidazolyl)quinolinium-4-yl]thiomethyl-3-cephem-4-carboxylate] |  |  |  |  |  |  |  | 0.2 | 0.78 | 0.39 | 0.2 | 1.56 | 1.56 | 0.1
6 | C#CCO/N=C(\C(=O)NC1C(=O)N2C(C(=O)[O-])=C(CSc3cc[n+](C4CC4)c4cc(N5CCNCC5)c(F)cc34)CS[C@H]12)c1csc(N)n1 (stereo partly drawn) [Compound I-41, 7-[(Z)-2-(2-aminothiazol-4-yl)-2-(propargyloxyimino)acetamido]-3-(1-cyclopropyl-6-fluoro-7-piperazinylquinolinium-4-yl)thiomethyl-3-cephem-4-carboxylate] | 0.2 (≈ 0.277 µM) | 0.78 (≈ 1.08 µM) | 0.78 (≈ 1.08 µM) | 0.39 (≈ 0.54 µM) | 3.13 (≈ 4.33 µM) | 3.13 (≈ 4.33 µM) | 6.25 (≈ 8.65 µM) |  |  |  |  |  |  | 
7 | C=CCO/N=C(\C(=O)NC1C(=O)N2C(C(=O)[O-])=C(CSc3cc[n+](C)c4cc(N5CCNCC5)c(F)cc34)CS[C@H]12)c1csc(N)n1 (stereo partly drawn) [Compound I-21, 7-[(Z)-2-(2-aminothiazol-4-yl)-2-(allyloxyimino)acetamido]-3-(1-methyl-6-fluoro-7-piperazinylquinolinium-4-yl)thiomethyl-3-cephem-4-carboxylate] | 0.39 (≈ 0.558 µM) | 0.2 (≈ 0.286 µM) | 0.1 (≈ 0.143 µM) | 0.025 (≈ 0.0358 µM) | 6.25 (≈ 8.94 µM) | 3.13 (≈ 4.48 µM) | 0.1 (≈ 0.143 µM) |  |  |  |  |  |  | 
8 | C=CCO/N=C(\C(=O)NC1C(=O)N2C(C(=O)[O-])=C(CSc3cc[n+](CC=C)c4cc(N5CCNCC5)c(F)cc34)CS[C@H]12)c1csc(N)n1 (stereo partly drawn) [Compound I-33, 7-[(Z)-2-(2-aminothiazol-4-yl)-2-(allyloxyimino)acetamido]-3-(1-allyl-6-fluoro-7-piperazinylquinolinium-4-yl)thiomethyl-3-cephem-4-carboxylate] | 0.78 (≈ 1.08 µM) | 0.78 (≈ 1.08 µM) | 1.56 (≈ 2.15 µM) | 0.39 (≈ 0.538 µM) | 3.13 (≈ 4.32 µM) | 3.13 (≈ 4.32 µM) | 1.56 (≈ 2.15 µM) |  |  |  |  |  |  | 
9 | CC(C)(O/N=C(\C(=O)NC1C(=O)N2C(C(=O)[O-])=C(CSc3cc[n+](C4CC4)c4cc(N5CCNCC5)c(F)cc34)CS[C@H]12)c1csc(N)n1)C(=O)O (stereo partly drawn) [Compound I-57, 7-[(Z)-2-(2-aminothiazol-4-yl)-2-(2-carboxyprop-2-oxyimino)acetamido]-3-(1-cyclopropyl-6-fluoro-7-piperazinylquinolinium-4-yl)thiomethyl-3-cephem-4-carboxylate] | 0.78 (≈ 1.01 µM) | 6.25 (≈ 8.11 µM) | 6.25 (≈ 8.11 µM) | 1.56 (≈ 2.02 µM) | 0.78 (≈ 1.01 µM) | 0.78 (≈ 1.01 µM) | 0.39 (≈ 0.506 µM) |  |  |  |  |  |  | 
10 | C=CCO/N=C(\C(=O)NC1C(=O)N2C(C(=O)[O-])=C(CSc3cc[n+](CC=C)c4cc(N5CCNCC5C)c(F)cc34)CS[C@H]12)c1csc(N)n1 (stereo partly drawn) [Compound I-36, 7-[(Z)-2-(2-aminothiazol-4-yl)-2-(allyloxyimino)acetamido]-3-[1-allyl-6-fluoro-7-(2-methylpiperazinyl)quinolinium-4-yl]thiomethyl-3-cephem4-carboxylate] |  |  |  |  |  |  |  | 0.39 | 0.78 | 1.56 | 0.39 | 1.56 | 1.56 | 0.78

More lines, now with the values ahead:

Row | MIC [1] [µg/mL] | MIC [2] [µg/mL] | MIC [3] [µg/mL] | MIC [4] [µg/mL] | MIC [5] [µg/mL] | MIC [6] [µg/mL] | MIC [7] [µg/mL] | Antibacterial Activity (MIC) [1] [µg/mL] | Antibacterial Activity (MIC) [2] [µg/mL] | Antibacterial Activity (MIC) [3] [µg/mL] | Antibacterial Activity (MIC) [4] [µg/mL] | Antibacterial Activity (MIC) [5] [µg/mL] | Antibacterial Activity (MIC) [6] [µg/mL] | Antibacterial Activity (MIC) [7] [µg/mL] | Compound
11 | 0.78 (≈ 1.06 µM) | 1.56 (≈ 2.11 µM) | 1.56 (≈ 2.11 µM) | 0.78 (≈ 1.06 µM) | 6.25 (≈ 8.46 µM) | 3.13 (≈ 4.24 µM) | 1.56 (≈ 2.11 µM) |  |  |  |  |  |  |  | C=CCO/N=C(\C(=O)NC1C(=O)N2C(C(=O)[O-])=C(CSc3cc[n+](CC=C)c4cc(N5CCN(C)CC5)c(F)cc34)CSC12)c1csc(N)n1 (stereo not drawn) [Compound I-34, 7-[(Z)-2-(2-aminothiazol-4-yl)-2-(allyloxyimino)acetamido]-3-[1-allyl-6-fluoro-7-(N-methylpiperazinyl)quinolinium-4-yl]thiomethyl-3-cephem-4-carboxylate]
12 | 0.1 (≈ 0.135 µM) | 0.39 (≈ 0.528 µM) | 1.56 (≈ 2.11 µM) | 0.2 (≈ 0.271 µM) | 0.39 (≈ 0.528 µM) | 6.25 (≈ 8.46 µM) | 0.2 (≈ 0.271 µM) |  |  |  |  |  |  |  | C=CCO/N=C(\C(=O)NC1C(=O)N2C(C(=O)[O-])=C(CSc3cc[n+](C4CC4)c4cc(N5CCN(C)CC5)c(F)cc34)CSC12)c1csc(N)n1 (stereo not drawn) [Compound I-26, 7-[(Z)-2-(2-aminothiazol-4-yl)-2-(allyloxyimino)acetamido]-3-[1-cyclopropyl-6-fluoro-7-(N-methylpiperazinyl)quinolinium-4-yl]thiomethyl-3-cephem-4-carboxylate]
13 | 0.2 (≈ 0.27 µM) | 0.39 (≈ 0.526 µM) | 0.78 (≈ 1.05 µM) | 0.39 (≈ 0.526 µM) | 0.78 (≈ 1.05 µM) | 0.78 (≈ 1.05 µM) | 0.39 (≈ 0.526 µM) |  |  |  |  |  |  |  | C=CCO/N=C(\C(=O)NC1C(=O)N2C(C(=O)[O-])=C(CSc3cc[n+](CC)c4cc(N5CCN(CC)CC5)c(F)cc34)CSC12)c1csc(N)n1 (stereo not drawn) [Compound I-31]
14 | 0.78 (≈ 1.06 µM) | 3.13 (≈ 4.25 µM) | 3.13 (≈ 4.25 µM) | 1.56 (≈ 2.12 µM) | 3.13 (≈ 4.25 µM) | 3.13 (≈ 4.25 µM) | 3.13 (≈ 4.25 µM) |  |  |  |  |  |  |  | C#CCO/N=C(\C(=O)NC1C(=O)N2C(C(=O)[O-])=C(CSc3cc[n+](CC=C)c4cc(N5CCN(C)CC5)c(F)cc34)CSC12)c1csc(N)n1 (stereo not drawn) [Compound I-50, 7-[(Z)-2-(2-aminothiazol-4-yl)-2-(propargyloxyimino)acetamido]-3-[1-allyl-6-fluoro-7-(N-methylpiperazinyl)quinolinium-4-yl]thiomethyl-3-cephem-4-carboxylate]
15 | 0.39 (≈ 0.547 µM) | 0.39 (≈ 0.547 µM) | 0.39 (≈ 0.547 µM) | 0.2 (≈ 0.281 µM) | 1.56 (≈ 2.19 µM) | 12.5 (≈ 17.5 µM) | 0.1 (≈ 0.14 µM) |  |  |  |  |  |  |  | CO/N=C(\C(=O)NC1C(=O)N2C(C(=O)[O-])=C(CSc3cc[n+](C4CC4)c4cc(N5CCN(C)CC5)c(F)cc34)CSC12)c1csc(N)n1 (stereo not drawn) [Compound I-6, 7-[(Z)-2-(2-aminothiazol-4-yl)-2-(methoxyimino)acetamido]-3-[1-cyclopropyl-6-fluoro-7-(N-methylpiperazinyl)quinolinium-4-yl]thiomethyl-3-cephem-4-carboxylate]

Reference: US5663331A, “Cephalosporin compounds” (Il-Dong Pharm. Co., Ltd., priority 1992, dated 1997)
